Source: patent US7345081B2, “Azabicyclo-octane inhibitors of IAP” (Genentech, Inc., priority 2004, dated 2008)
pIC50, pKi: −log10 of the molar value.

Tests used:
MLXBIR3SG [1] = target: T1, MLXBIR3SG (Homo sapiens, UniProt Q96CA5, S150G); experiment: TR-FRET peptide binding assay; conditions: TR-FRET competition; 300 nM his-tagged MLXBIR3SG, 200 nM biotinylated SMAC peptide (AVPI)
T1 sequence (Q96CA5 with tags, fused parts or gaps S150G): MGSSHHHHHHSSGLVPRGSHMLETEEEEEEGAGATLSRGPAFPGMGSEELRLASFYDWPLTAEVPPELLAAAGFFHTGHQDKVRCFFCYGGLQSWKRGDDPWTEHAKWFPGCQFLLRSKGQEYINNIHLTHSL
Protocol: The improved caspase-9 inhibition of the chimeric BIR domain MLXBIR3SG has been correlated with increased inhibition of doxorubicin-induced apoptosis when transfected into MCF7 cells. TR-FRET Peptide Binding Assay Time-Resolved Fluorescence Resonance Energy Transfer competition experiments were performed on the Wallac Victor2 Multilabeled Counter Reader (Perkin Elmer Life and Analytical Sciences, Inc.) according to the procedures of Kolb et al (Journal of Biomolecular Screening, 1996, 1(4):203). A reagent cocktail containing 300 nM his-tagged MLXBIR3SG; 200 nM biotinylated SMAC peptide (AVPI); 5 μg/mL anti-his allophycocyanin (XL665) (CISBio International); and 200 ng/mL streptavidin-europium (Perkin Elmer) was prepared in reagent buffer (50 mM Tris [pH 7.2], 120 mM NaCl, 0.1% bovine globulins, 5 mM DTT and 0.05% octylglucoside). […] The reagent cocktail was incubated at room temperature for 30 minutes. […] After a 90 minute incubation at room temperature, the fluorescence was read with filters for the excitation of europium (340 nm) and for the emission wavelengths of europium (615 nm) and a allophycocyanin (665 nm). Antagonist data were calculated as a ratio of the emission signal of allophycocyanin at 665 nm to that of the emission of europium at 615 nm (these ratios were multiplied by a factor of 10,000 for ease of data manipulation). The resulting values were plotted as a function of antagonist concentration and fit to a 4-parameter equation using Kaleidograph software (Synergy Software, Reading, Pa.). Indications of antagonist potency were determined from the IC50 values.

MLXBIR3SG [2] = target: T1, MLXBIR3SG; experiment: Fluorescence polarization peptide binding assay; conditions: fluorescence polarization competition; for pKi: Ki determined from the IC50 values; for pIC50: MLXBIR3SG at 30 nM, 5 nM AVP-diPhe-FAM probe
Protocol: The improved caspase-9 inhibition of the chimeric BIR domain MLXBIR3SG has been correlated with increased inhibition of doxorubicin-induced apoptosis when transfected into MCF7 cells. Fluorescence Polarization Peptide Binding Assay Polarization experiments were performed on an Analyst HT 96-384 (Molecular Devices Corp.) according to the procedure of […]., Zioncheck, K., Clark, K., Arellano, F., and Bodary., S.(2000) in Proceedings of SPIE : In Vitro Diagnostic Instrumentation (Cohn, G. E., Ed.) pp 128-137, Bellingham, Wash. […] Fluorescence values were plotted as a function of the protein concentration, and the IC50s were obtained by fitting the data to a 4-parameter equation using Kaleidograph software (Synergy software, Reading, Pa.). […] Samples were read after a 10-minute incubation. Fluorescence polarization values were plotted as a function of the antagonist concentration, and the IC50 values were obtained by fitting the data to a 4-parameter equation using Kaleidograph software (Synergy software, Reading, Pa.). Inhibition constants (Ki) for the antagonists were determined from the IC50 values.

| Structure (SMILES) | pIC50 (MLXBIR3SG [1]) | pKi (MLXBIR3SG [2]) | pIC50 (MLXBIR3SG [2]) |
| --- | --- | --- | --- |
| COc1ccc2ccccc2c1C(=O)NC1CCC2CCN(C(=O)C(NC(=O)C(C)N)C(C)C)C21 (stereo not drawn) [Compound 5] | > 5.00 | – | – |
| CN[C@@H](C)C(=O)N[C@H](C(=O)N1CCC2CCC(NC(=O)c3ccc(C)c4ccccc34)C21)C(C)(C)C (stereo partly drawn) [Compound 6] | > 5.00 | > 6.70 | > 6.00 |
| CN[C@@H](C)C(=O)N[C@H](C(=O)N1CCC2CCC(NC(=O)c3coc4ccccc34)C21)C(C)(C)C (stereo partly drawn) [Compound 11] | > 5.00 | – | – |
| C[C@H](N)C(=O)N[C@H](C(=O)N1CCC2CCC(NC(=O)C(c3ccccc3)c3ccccc3)C21)C(C)(C)C (stereo partly drawn) [Compound 22] | > 5.00 | – | – |
| CNC(C)C(=O)NC(C(=O)N1CCC2CCC(NC(=O)C(c3ccccc3)c3ccccc3)C21)C(C)(C)C (stereo not drawn) [Compound 9] | > 5.00 | – | – |
| CN[C@@H](C)C(=O)N[C@H](C(=O)N1CCC2CCC(NC(=O)c3c(OC)ccc4ccccc34)C21)C(C)(C)C (stereo partly drawn) [Compound 12] | > 5.00 | > 6.70 | > 6.00 |
| CN[C@@H](C)C(=O)N[C@H](C(=O)N1CCC2CCC(NC(=O)c3ccc(F)c4ccccc34)C21)C(C)(C)C (stereo partly drawn) [Compound 24] | > 5.00 | > 6.70 | > 6.00 |
| CN[C@@H](C)C(=O)N[C@H](C(=O)N1CCC2CCC(NC(=O)c3cccc4ccccc34)C21)C1CCCCC1 (stereo partly drawn) [Compound 28] | > 5.00 | – | – |
| CN[C@@H](C)C(=O)N[C@H](C(=O)N1CCC2CCC(NC(=O)C(c3ccccc3)c3ccc(F)cc3)C21)C(C)(C)C (stereo partly drawn) [Compound 4] | > 5.00 | > 6.70 | > 6.00 |
| C[C@H](N)C(=O)N[C@H](C(=O)N1CCC2CCC(NC(=O)c3cccc4ccccc34)C21)C(C)(C)C (stereo partly drawn) [Compound 13] | > 5.00 | – | – |
| CN[C@@H](C)C(=O)N[C@H](C(=O)N1CCC2CCC(NC(=O)c3ccccc3)C21)C(C)(C)C (stereo partly drawn) [Compound 14] | > 5.00 | – | – |
| CN[C@@H](C)C(=O)N[C@H](C(=O)N1CCC2CCC(NC(=O)c3cccc4ccccc34)C21)C(C)(C)C (stereo partly drawn) [Compound 21] | > 5.00 | – | – |
| CN[C@@H](C)C(=O)N[C@H](C(=O)N1CCC2CCC(NC(=O)c3csc4ccccc34)C21)C(C)(C)C (stereo partly drawn) [Compound 16] | > 5.00 | > 6.70 | > 6.00 |
| CN[C@@H](C)C(=O)N[C@H](C(=O)N1CCC2CCC(NC(=O)C3COc4ccccc43)C21)C(C)(C)C (stereo partly drawn) [Compound 3] | > 5.00 | – | – |
